Measured values as given in patent US12030878B2 (BRISTOL-MYERS SQUIBB COMPANY, priority 2017, dated 2024).

Assays:
Type in all cases: cell-based
[1] = target: T1, human TLR7 (Homo sapiens, UniProt Q9NYK1); assay: TLR7 inhibition reporter assay (HEK-Blue SEAP); conditions: HEK-Blue cells overexpressing human TLR7, stimulated with gardiquimod 7.5 μM, 22 hour incubation
T1 construct: host or cells: HEK-Blue cells
T1 sequence (Q9NYK1 27-1049): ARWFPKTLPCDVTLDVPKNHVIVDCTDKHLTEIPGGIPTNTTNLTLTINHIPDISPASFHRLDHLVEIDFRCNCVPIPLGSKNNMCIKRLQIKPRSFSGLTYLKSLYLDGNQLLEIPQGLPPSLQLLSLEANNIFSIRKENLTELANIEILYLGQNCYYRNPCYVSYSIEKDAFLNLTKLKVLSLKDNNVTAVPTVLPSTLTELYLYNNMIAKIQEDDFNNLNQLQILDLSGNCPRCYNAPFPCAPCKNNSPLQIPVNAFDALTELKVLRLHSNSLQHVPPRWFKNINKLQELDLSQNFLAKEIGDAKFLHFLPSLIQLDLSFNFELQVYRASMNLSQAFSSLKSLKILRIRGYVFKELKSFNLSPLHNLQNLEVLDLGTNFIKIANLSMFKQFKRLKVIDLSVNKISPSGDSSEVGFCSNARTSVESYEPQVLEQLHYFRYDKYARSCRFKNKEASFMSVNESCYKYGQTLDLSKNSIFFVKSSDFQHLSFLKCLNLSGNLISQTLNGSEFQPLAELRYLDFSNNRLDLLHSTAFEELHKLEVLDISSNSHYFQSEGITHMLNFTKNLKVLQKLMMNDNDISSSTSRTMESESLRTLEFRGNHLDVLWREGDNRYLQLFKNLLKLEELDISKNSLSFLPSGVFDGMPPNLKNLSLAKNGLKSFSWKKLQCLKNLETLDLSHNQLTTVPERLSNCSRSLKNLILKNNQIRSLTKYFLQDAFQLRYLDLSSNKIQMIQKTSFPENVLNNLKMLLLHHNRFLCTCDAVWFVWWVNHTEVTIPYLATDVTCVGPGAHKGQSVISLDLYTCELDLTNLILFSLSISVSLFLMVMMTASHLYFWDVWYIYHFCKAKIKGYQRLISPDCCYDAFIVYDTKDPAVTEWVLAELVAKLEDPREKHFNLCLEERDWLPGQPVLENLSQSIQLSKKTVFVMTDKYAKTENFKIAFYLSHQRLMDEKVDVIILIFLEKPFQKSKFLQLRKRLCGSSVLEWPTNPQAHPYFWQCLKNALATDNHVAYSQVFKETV
Procedure, shortened: (§1)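 Stimulation followed a 30 min room-temperature compound exposure (final 0.05 nM-50 μM): TLR7 cells with 7.5 μM gardiquimod, TLR8 with 15.9 μM R848, TLR9 with 5 nM ODN2006. After 22 h at 37 °C, secreted alkaline phosphatase was detected colorimetrically and inhibition calculated against DMSO and known-inhibitor controls.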

[2] = target: T2, human TLR8 (Homo sapiens, UniProt Q9NR97); assay: TLR8 inhibition reporter assay (HEK-Blue SEAP); conditions: HEK-Blue cells overexpressing human TLR8, stimulated with R848 15.9 μM, 22 hour incubation
T2 construct: host or cells: HEK-Blue cells
T2 sequence (Q9NR97 27-1041): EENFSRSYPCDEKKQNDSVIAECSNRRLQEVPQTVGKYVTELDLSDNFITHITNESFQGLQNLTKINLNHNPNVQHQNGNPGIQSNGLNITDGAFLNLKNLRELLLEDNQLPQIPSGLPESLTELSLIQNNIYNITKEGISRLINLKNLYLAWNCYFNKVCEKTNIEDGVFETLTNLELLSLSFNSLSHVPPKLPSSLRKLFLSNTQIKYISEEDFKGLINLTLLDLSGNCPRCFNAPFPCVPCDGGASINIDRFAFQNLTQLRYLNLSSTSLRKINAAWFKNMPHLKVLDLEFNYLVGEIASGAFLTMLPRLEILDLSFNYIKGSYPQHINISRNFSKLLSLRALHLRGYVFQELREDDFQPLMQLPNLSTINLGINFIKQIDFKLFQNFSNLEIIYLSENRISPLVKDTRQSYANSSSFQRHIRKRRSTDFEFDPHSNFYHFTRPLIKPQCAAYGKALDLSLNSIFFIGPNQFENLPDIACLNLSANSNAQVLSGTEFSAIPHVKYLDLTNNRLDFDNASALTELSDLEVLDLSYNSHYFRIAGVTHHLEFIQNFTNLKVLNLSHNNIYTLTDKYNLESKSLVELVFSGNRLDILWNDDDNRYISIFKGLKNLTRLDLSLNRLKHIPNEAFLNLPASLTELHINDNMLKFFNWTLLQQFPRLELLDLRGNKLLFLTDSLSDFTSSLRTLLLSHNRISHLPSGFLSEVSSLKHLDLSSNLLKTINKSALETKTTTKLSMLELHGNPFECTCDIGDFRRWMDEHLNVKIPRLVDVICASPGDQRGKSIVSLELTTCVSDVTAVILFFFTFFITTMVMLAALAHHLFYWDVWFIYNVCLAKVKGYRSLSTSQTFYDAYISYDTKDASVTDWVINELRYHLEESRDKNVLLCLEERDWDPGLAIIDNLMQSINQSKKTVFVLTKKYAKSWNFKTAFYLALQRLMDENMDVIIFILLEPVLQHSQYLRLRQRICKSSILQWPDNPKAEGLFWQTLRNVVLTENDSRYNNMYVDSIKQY
Procedure, shortened: as §1

[3] = target: T3, human TLR9 (Homo sapiens, UniProt Q9NR96); assay: TLR9 inhibition reporter assay (HEK-Blue SEAP); conditions: HEK-Blue cells overexpressing human TLR9, stimulated with ODN2006 5 nM, 22 hour incubation
T3 construct: host or cells: HEK-Blue cells
T3 sequence (Q9NR96 26-1032): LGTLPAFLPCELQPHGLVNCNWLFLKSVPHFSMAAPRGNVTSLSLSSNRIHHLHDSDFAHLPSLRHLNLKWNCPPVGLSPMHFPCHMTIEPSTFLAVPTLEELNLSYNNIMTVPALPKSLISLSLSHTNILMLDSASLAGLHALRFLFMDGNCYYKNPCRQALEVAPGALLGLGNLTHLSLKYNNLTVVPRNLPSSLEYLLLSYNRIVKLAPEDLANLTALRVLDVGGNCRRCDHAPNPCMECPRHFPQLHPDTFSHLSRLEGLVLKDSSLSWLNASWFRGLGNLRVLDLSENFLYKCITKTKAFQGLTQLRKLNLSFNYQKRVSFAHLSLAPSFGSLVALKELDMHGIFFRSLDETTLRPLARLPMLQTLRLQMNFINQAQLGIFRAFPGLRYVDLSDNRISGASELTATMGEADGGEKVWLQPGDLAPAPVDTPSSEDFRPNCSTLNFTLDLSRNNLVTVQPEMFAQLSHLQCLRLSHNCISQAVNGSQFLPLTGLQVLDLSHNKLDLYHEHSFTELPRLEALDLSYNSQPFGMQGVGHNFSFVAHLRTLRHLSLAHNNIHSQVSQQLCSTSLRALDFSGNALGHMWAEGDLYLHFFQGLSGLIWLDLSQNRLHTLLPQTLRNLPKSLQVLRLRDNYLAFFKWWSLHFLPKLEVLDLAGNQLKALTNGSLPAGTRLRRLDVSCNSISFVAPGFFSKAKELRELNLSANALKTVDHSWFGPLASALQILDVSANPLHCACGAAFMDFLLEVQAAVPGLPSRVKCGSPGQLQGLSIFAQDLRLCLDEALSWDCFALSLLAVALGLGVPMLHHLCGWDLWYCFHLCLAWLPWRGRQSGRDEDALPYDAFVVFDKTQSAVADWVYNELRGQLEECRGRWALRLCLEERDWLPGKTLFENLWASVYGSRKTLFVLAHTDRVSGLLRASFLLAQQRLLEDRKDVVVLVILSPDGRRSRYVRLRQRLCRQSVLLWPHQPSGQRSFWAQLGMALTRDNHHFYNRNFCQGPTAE
Procedure, shortened: as §1

IC50 [1] [nM] | IC50 [2] [nM] | IC50 [3] [nM] | Structure (SMILES)
105 | 22.8 | 2530 | CCc1c(-c2ccc(OC)c(OC)c2)[nH]c2ccc(OCC3CCNCC3)cc12 [Example 162, 2-(3,4-dimethoxyphenyl)-3-ethyl-5-(piperidin-4-ylmethoxy)-1H-indole]
146 | 9 | 1810 | CCc1c(-c2ccnc(C)c2)[nH]c2ccc(OC3CCNCC3)cc12 [Example 163, 3-ethyl-2-(2-methylpyridin-4-yl)-5-(piperidin-4-yloxy)-1H-indole]
11.2 | 1.1 | 1080 | Cc1cc(-c2[nH]c3ccc(OC4CCNCC4)cc3c2C(C)C)ccn1 [Example 164, 3-isopropyl-2-(2-methylpyridin-4-yl)-5-(piperidin-4-yloxy)-1H-indole]
5920 | 1290 | > 50000 | Cc1cc(-c2[nH]c3ccc(OCc4ccccc4)cc3c2C(C)C)ccn1 [Example 165, 5-(benzyloxy)-3-isopropyl-2-(2-methylpyridin-4-yl)-1H-indole]
65.1 | 3.1 | 987 | Cc1cc(-c2[nH]c3ccc(OCCN4CCCC4)cc3c2C(C)C)ccn1 [Example 166, 3-isopropyl-2-(2-methylpyridin-4-yl)-5-(2-(pyrrolidin-1-yl)ethoxy)-1H-indole]
69 | 3.1 | 1920 | Cc1cc(-c2[nH]c3ccc(OCCN(C)C)cc3c2C(C)C)ccn1 [Example 167, 2-((3-isopropyl-2-(2-methylpyridin-4-yl)-1H-indol-5-yl)oxy)-N,N-dimethylethan-1-amine]
4930 | 134 | > 50000 | Cc1cc(-c2[nH]c3ccc(OCc4ccc(N5CCOCC5)cc4)cc3c2C(C)C)ccn1 [Example 168, 4-(4-(((3-isopropyl-2-(2-methylpyridin-4-yl)-1H-indol-5-yl)oxy)methyl)phenyl)morpholine]
200 | 181 | 28400 | Cc1cc(-c2[nH]c3ccc(OCc4cccnc4)cc3c2C(C)C)ccn1 [Example 169, 3-isopropyl-2-(2-methylpyridin-4-yl)-5-(pyridin-3-ylmethoxy)-1H-indole]
83.9 | 31.3 | 1080 | COc1ccc(-c2[nH]c3ccc(O[C@H]4CCNC4)cc3c2C(C)C)cc1OC [Example 170, (S)-2-(3,4-dimethoxyphenyl)-3-isopropyl-5-(pyrrolidin-3-yloxy)-1H-indole]
166 | 15.3 | 939 | COc1ccc(-c2[nH]c3ccc(OC4CCNCC4)cc3c2C(C)C)cc1OC [Example 171, 2-(3,4-dimethoxyphenyl)-3-isopropyl-5-(piperidin-4-yloxy)-1H-indole]
119 | 12.7 | 3120 | CNCCOc1ccc2[nH]c(-c3ccnc(C)c3)c(C(C)C)c2c1 [Example 172, 2-((3-isopropyl-2-(2-methylpyridin-4-yl)-1H-indol-5-yl)oxy)-N-methylethan-1-amine]
682 | 63.3 | 5050 | COc1ccc(-c2[nH]c3ccc(OCCN4CCOCC4)cc3c2C(C)C)cc1OC [Example 173, 4-(2-((2-(3,4-dimethoxyphenyl)-3-isopropyl-1H-indol-5-yl)oxy)ethyl)morpholine]
3590 | 3020 | > 50000 | Cc1cc(-c2[nH]c3ccc(OCc4ccncc4)cc3c2C(C)C)ccn1 [Example 174, 3-isopropyl-2-(2-methylpyridin-4-yl)-5-(pyridin-4-ylmethoxy)-1H-indole]
439 | 17.5 | 9940 | Cc1cc(-c2[nH]c3ccc(OCCN4CCOCC4)cc3c2C(C)C)ccn1 [Example 175, 4-(2-((3-isopropyl-2-(2-methylpyridin-4-yl)-1H-indol-5-yl)oxy)ethyl)morpholine]
27.8 | 33.4 | 1290 | Cc1cc(-c2[nH]c3ccc(OC4CCCNC4)cc3c2C(C)C)ccn1 (stereo not drawn) [Example 177, 3-isopropyl-2-(2-methylpyridin-4-yl)-5-(piperidin-3-yloxy)-1H-indole]
39.7 | 2.5 | 1440 | Cc1cc(-c2[nH]c3ccc(OC4CCN(C)CC4)cc3c2C(C)C)ccn1 [Example 179, 3-isopropyl-5-((1-methylpiperidin-4-yl)oxy)-2-(2-methylpyridin-4-yl)-1H-indole]
37.7 | 3.5 | 1830 | Cc1cc(-c2[nH]c3ccc(OCC4CCCNC4)cc3c2C(C)C)ccn1 (stereo not drawn) [Example 180, 3-isopropyl-2-(2-methylpyridin-4-yl)-5-(piperidin-3-ylmethoxy)-1H-indole]
24.2 | 5.9 | 915 | Cc1cc(-c2[nH]c3ccc(OCC4CCCN(C)C4)cc3c2C(C)C)ccn1 (stereo not drawn) [Example 181, 3-isopropyl-5-((1-methylpiperidin-3-yl)methoxy)-2-(2-methylpyridin-4-yl)-1H-indole]
